Data published in ChEMBL document CHEMBL1201862, “PubChem BioAssay data set” (2004).
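These data come from cells grown in 96-well plates and exposed to compound for 48 hours at five concentrations. Here, GI50 denotes the concentration required for 50% inhibition of growth.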 Calls of active or inactive are those of the source. No stated cut-off is given here; in the data, active = GI50 up to about 1.1 µM and inactive = higher.

Legend:
Assay in all cases: NCI-60 cell line screen, 48 h
NCI-H522 = test system: NCI-H522
PC-3 = test system: PC-3
SW-620 = test system: SW-620
A549 = test system: A549
SK-MEL-28 = test system: SK-MEL-28
HT-29 = test system: HT-29
HOP-92 = test system: HOP-92
DU-145 = test system: DU-145
SN12C = test system: SN12C
HCC 2998 = test system: HCC 2998
NCI-H460 = test system: NCI-H460
SNB-19 = test system: SNB-19
CCRF-CEM = test system: CCRF-CEM
IGROV-1 = test system: IGROV-1
SK-OV-3 = test system: SK-OV-3
NCI-H23 = test system: NCI-H23
UACC-257 = test system: UACC-257
OVCAR-3 = test system: OVCAR-3
SNB-75 = test system: SNB-75
NCI/ADR-RES = test system: NCI/ADR-RES

Row | SMILES | GI50 (NCI-H522) | GI50 (PC-3) | GI50 (SW-620) | GI50 (A549) | GI50 (SK-MEL-28) | GI50 (HT-29) | GI50 (HOP-92) | GI50 (DU-145) | GI50 (SN12C) | GI50 (HCC 2998) | GI50 (NCI-H460) | GI50 (SNB-19) | GI50 (CCRF-CEM) | GI50 (IGROV-1) | GI50 (SK-OV-3) | GI50 (NCI-H23) | GI50 (UACC-257) | GI50 (OVCAR-3) | GI50 (SNB-75) | GI50 (NCI/ADR-RES)
1 | CCCCCCCC(CC(=O)NC(CO)C(=O)NC(CO)CC(C)C)OC(=O)CC(CCCCCCC)OC(=O)CC(CCCCCCC)OC1OC(C)C(O)C(OC2OC(C)C(O)C(OC(C)=O)C2O)C1O (stereo unspecified) | 15 µM (inactive) | 7.6 µM (inactive) | 14.9 µM (inactive) | 12.5 µM (inactive) | 12.2 µM (inactive) | 7.8 µM (inactive) | 10.9 µM (inactive) | 10.4 µM (inactive) | 7.05 µM (inactive) | 11.2 µM (inactive) | 13.3 µM (inactive) | 6.43 µM (inactive) | 5.2 µM (inactive) | 12.3 µM (inactive) | 17 µM (inactive) | 14.2 µM (inactive) | 5.77 µM (inactive) | 10.7 µM (inactive) | 5.56 µM (inactive) | –
2 | C=C(CN(C)C)C(=O)c1ccccc1Cl | 6.53 µM (inactive) | – | 13.3 µM (inactive) | > 100 µM (inactive) | 7.59 µM (inactive) | 19.1 µM (inactive) | 17.1 µM (inactive) | 36.4 µM (inactive) | 20.9 µM (inactive) | 26.5 µM (inactive) | 52.8 µM (inactive) | 63.1 µM (inactive) | 5.7 µM (inactive) | > 47 µM (inactive) | > 100 µM (inactive) | 22.9 µM (inactive) | 18.8 µM (inactive) | 19.7 µM (inactive) | 41.8 µM (inactive) | –
3 | C/C(=N\Nc1nc2ccccc2s1)c1ccc2ccccc2n1 | 32.3 µM (inactive) | > 100 µM (inactive) | > 100 µM (inactive) | > 100 µM (inactive) | > 100 µM (inactive) | 85.9 µM (inactive) | – | > 100 µM (inactive) | > 100 µM (inactive) | – | > 100 µM (inactive) | > 100 µM (inactive) | 25.7 µM (inactive) | 0.402 µM (active) | > 100 µM (inactive) | > 100 µM (inactive) | > 100 µM (inactive) | 34.8 µM (inactive) | 15.5 µM (inactive) | > 100 µM (inactive)
4 | COc1cc(C2SCC(=O)N2c2ccc(Oc3ccc(Cl)cc3)c(Cl)c2)cc(OC)c1OC (stereo unspecified) | 12 µM (inactive) | 15.4 µM (inactive) | 21 µM (inactive) | 21.9 µM (inactive) | 16.6 µM (inactive) | 16.3 µM (inactive) | – | 13.3 µM (inactive) | 27.3 µM (inactive) | 40 µM (inactive) | 43.4 µM (inactive) | 34.2 µM (inactive) | – | 15.6 µM (inactive) | 17.1 µM (inactive) | 32.8 µM (inactive) | 18.1 µM (inactive) | 17.1 µM (inactive) | 17.2 µM (inactive) | 16.6 µM (inactive)
5 | NS(=O)(=O)c1ccccc1C(=O)N/N=C(\c1nc2ccc([N+](=O)[O-])cc2[nH]c1=O)C(O)c1ccc([N+](=O)[O-])cc1 (stereo unspecified) | 10.6 µM (inactive) | – | > 100 µM (inactive) | > 100 µM (inactive) | > 100 µM (inactive) | > 100 µM (inactive) | > 100 µM (inactive) | > 100 µM (inactive) | > 100 µM (inactive) | > 100 µM (inactive) | > 100 µM (inactive) | > 100 µM (inactive) | 71.1 µM (inactive) | > 100 µM (inactive) | > 100 µM (inactive) | > 100 µM (inactive) | > 100 µM (inactive) | > 100 µM (inactive) | > 100 µM (inactive) | –
6 | COc1ccccc1/C=C\C(=O)C1COCN1 (stereo unspecified) | 16 µM (inactive) | 13.2 µM (inactive) | 4.36 µM (inactive) | 23.1 µM (inactive) | 18 µM (inactive) | 6.35 µM (inactive) | – | 17.3 µM (inactive) | 16.4 µM (inactive) | – | 30.9 µM (inactive) | 13.1 µM (inactive) | 3.77 µM (inactive) | 16.1 µM (inactive) | 10.2 µM (inactive) | > 100 µM (inactive) | 18.1 µM (inactive) | 8.24 µM (inactive) | 18.6 µM (inactive) | 15.2 µM (inactive)
7 | O=C(Cn1c2c(c3ccccc31)CCCC2)N1CCOCC1 | – | > 100 µM (inactive) | > 100 µM (inactive) | > 100 µM (inactive) | – | > 100 µM (inactive) | > 100 µM (inactive) | – | > 100 µM (inactive) | > 100 µM (inactive) | > 100 µM (inactive) | > 100 µM (inactive) | > 100 µM (inactive) | > 100 µM (inactive) | > 100 µM (inactive) | > 100 µM (inactive) | > 100 µM (inactive) | > 100 µM (inactive) | – | > 100 µM (inactive)
8 | O=C(O)CC(NC(=O)/C(=C/c1ccccc1O)NC(=O)c1ccccc1)C(=O)O (stereo unspecified) | 65.5 µM (inactive) | 86.1 µM (inactive) | > 100 µM (inactive) | > 100 µM (inactive) | > 100 µM (inactive) | 80.7 µM (inactive) | – | – | > 100 µM (inactive) | > 100 µM (inactive) | – | – | 33.9 µM (inactive) | 58.9 µM (inactive) | > 100 µM (inactive) | > 100 µM (inactive) | > 100 µM (inactive) | > 100 µM (inactive) | 88.1 µM (inactive) | > 100 µM (inactive)
